In PMC9570109, “Improved Trimethylangelicin Analogs for Cystic Fibrosis: Design, Synthesis and Preliminary Screening” (International Journal of Molecular Sciences, 2022):

Assays:
Assay type in all cases: cell-based
[1] = tested on: Salmonella typhimurium TA98; experiment: Ames mutagenicity assay, plate incorporation, TA98
Description: (§1) The mutagenicity assay was performed for the test compounds following the plate incorporation method with the histidine-requiring Salmonella typhimurium mutant TA97A, TA98, TA100, and TA1535 strains purchased by Molecular Toxicology Inc. (Boone, NC, USA; moltox.com). All strains (100 µL per plate of fresh overnight cultures) were checked with and without the addition of 0.5 mL of a 5% S9 exogenous metabolic activator (S9 mix). The lyophilized post-mitochondrial supernatant S9 mix (Aroclor 1254-induced, Sprague–Dawley male rat liver in 0.154 M KCl solution), commonly used for the activation of pro-mutagens in mutagenic metabolites (Molecular Toxicology, Inc., Boone, NC, USA), was stored at −80 °C before use. The concentration tested for all the samples were 5, 10, 20, 50, and 100 µL/plate from a stock solution of 500 nM. A fully grown culture of the appropriate tester strain (0.1 mL) was added to 2 mL molten top agar (0.6% agar, 0.6% NaCl, 0.5 mM L-histidine/biotin solution) at 46 °C, together with 0.1 mL of each sample solution at different concentrations, and 0.5 mL S9 mix for assays with metabolic activation. The ingredients were thoroughly mixed and poured onto minimal glucose agar plates (1.5% agar in 2% Vogel–Bonner medium E with 5% glucose solution). DMSO was used as negative a control (100 µL/plate). Positive controls were prepared as follows: 2-aminoanthracene (2 µg/plate) and 2-nitrofluorene (2 µg/plate) for TA 97A, TA98 and TA1535 with and without metabolic activator (S9 mix), respectively; 2-aminoanthracene (2 µg/plate) and sodium azide (2 µg/plate) for TA100, with and without metabolic activator (S9 mix), respectively. The plates were incubated at 37 °C for 72 h and then his+ revertants were checked and counted using a Colony Counter 560 Suntex (Antibioticos, Italy). A sample was considered mutagenic when the observed number of colonies was at least twofold over the spontaneous level of revertants. All determinations were made in triplicate. Statistical analysis: relative standard deviations were calculated using the statistical software STATISTICA 6.0 (StatSoft, Italia srl, Vigonza, Italy). […]
(§2) Salmonella typhimurium TA97A Salmonella typhimurium TA98 Salmonella typhimurium TA100 Salmonella typhimurium 1535 […]
(§3) average SD t/c average SD t/c average SD t/c average SD t/c average SD t/c average SD t/c average SD t/c average SD t/c […]
(§4) *Significant values according to Ames computation (Maron & Ames, 1983); DMSO, C+: negative and positive controls respectively; SD: Standard Deviation; t/c: number of revertant colonies in treated plates/number of revertant colonies in […]

[2] = tested on: Salmonella typhimurium 1535; experiment: Ames mutagenicity assay, plate incorporation, TA1535
Description: as §1, §2, §3, §4

[3] = tested on: Salmonella typhimurium TA100; experiment: Ames mutagenicity assay, plate incorporation, TA100
Description: as §1, §2, §3, §4

[4] = tested on: Salmonella typhimurium TA97A; experiment: Ames mutagenicity assay, plate incorporation, TA97A
Description: as §1, §2, §3, §4

[5] = TA98, +S9, 5 µL/plate of 500 nM stock
[6] = TA98, +S9, 10 µL/plate of 500 nM stock
[7] = TA98, +S9, 20 µL/plate of 500 nM stock
[8] = TA98, +S9, 50 µL/plate of 500 nM stock
[9] = TA98, +S9, 100 µL/plate of 500 nM stock
[10] = TA98, -S9, 5 µL/plate of 500 nM stock
[11] = TA98, -S9, 10 µL/plate of 500 nM stock
[12] = TA98, -S9, 20 µL/plate of 500 nM stock
[13] = TA98, -S9, 50 µL/plate of 500 nM stock
[14] = TA98, -S9, 100 µL/plate of 500 nM stock
[15] = 1535, +S9, 5 µL/plate of 500 nM stock
[16] = 1535, +S9, 10 µL/plate of 500 nM stock
[17] = 1535, +S9, 20 µL/plate of 500 nM stock
[18] = 1535, +S9, 50 µL/plate of 500 nM stock
[19] = 1535, +S9, 100 µL/plate of 500 nM stock
[20] = 1535, -S9, 5 µL/plate of 500 nM stock
[21] = 1535, -S9, 10 µL/plate of 500 nM stock
[22] = 1535, -S9, 20 µL/plate of 500 nM stock
[23] = 1535, -S9, 50 µL/plate of 500 nM stock
[24] = 1535, -S9, 100 µL/plate of 500 nM stock
[25] = TA100, +S9, 5 µL/plate of 500 nM stock
[26] = TA100, +S9, 10 µL/plate of 500 nM stock
[27] = TA100, +S9, 20 µL/plate of 500 nM stock
[28] = TA100, +S9, 50 µL/plate of 500 nM stock
[29] = TA100, +S9, 100 µL/plate of 500 nM stock
[30] = TA100, -S9, 5 µL/plate of 500 nM stock
[31] = TA100, -S9, 10 µL/plate of 500 nM stock
[32] = TA100, -S9, 20 µL/plate of 500 nM stock
[33] = TA100, -S9, 50 µL/plate of 500 nM stock
[34] = TA100, -S9, 100 µL/plate of 500 nM stock
[35] = +S9, 5 µL/plate of 500 nM stock
[36] = +S9, 10 µL/plate of 500 nM stock
[37] = +S9, 20 µL/plate of 500 nM stock
[38] = +S9, 50 µL/plate of 500 nM stock
[39] = +S9, 100 µL/plate of 500 nM stock
[40] = -S9, 5 µL/plate of 500 nM stock
[41] = -S9, 10 µL/plate of 500 nM stock
[42] = -S9, 20 µL/plate of 500 nM stock
[43] = -S9, 50 µL/plate of 500 nM stock
[44] = -S9, 100 µL/plate of 500 nM stock

Question: What does the source list for `Cc1cc(=O)oc2c1cc(-c1ccccc1)c1occ(C)c12` [6-PhDMA]?
Answer: revertant colonies, average [1, 5]: 45.5; t/c (revertant colonies treated/untreated plates) [1, 5]: 1.0; revertant colonies, average [1, 6]: 49.5; t/c (revertant colonies treated/untreated plates) [1, 6]: 1.1; revertant colonies, average [1, 7]: 46.5; t/c (revertant colonies treated/untreated plates) [1, 7]: 1.0; revertant colonies, average [1, 8]: 46.0; t/c (revertant colonies treated/untreated plates) [1, 8]: 1.0; revertant colonies, average [1, 9]: 45.0; t/c (revertant colonies treated/untreated plates) [1, 9]: 1.0; revertant colonies, average [1, 10]: 37.5; t/c (revertant colonies treated/untreated plates) [1, 10]: 1.0; revertant colonies, average [1, 11]: 41.0; t/c (revertant colonies treated/untreated plates) [1, 11]: 1.1; revertant colonies, average [1, 12]: 38.0; t/c (revertant colonies treated/untreated plates) [1, 12]: 1.0; revertant colonies, average [1, 13]: 43.5; t/c (revertant colonies treated/untreated plates) [1, 13]: 1.1; revertant colonies, average [1, 14]: 40.0; t/c (revertant colonies treated/untreated plates) [1, 14]: 1.0; revertant colonies, average [2, 15]: 13.5; t/c (revertant colonies treated/untreated plates) [2, 15]: 1.3; revertant colonies, average [2, 16]: 12.5; t/c (revertant colonies treated/untreated plates) [2, 16]: 1.2; revertant colonies, average [2, 17]: 10.0; t/c (revertant colonies treated/untreated plates) [2, 17]: 0.9; revertant colonies, average [2, 18]: 10.0; t/c (revertant colonies treated/untreated plates) [2, 18]: 0.9; revertant colonies, average [2, 19]: 14.0; t/c (revertant colonies treated/untreated plates) [2, 19]: 1.3; revertant colonies, average [2, 20]: 13.5; t/c (revertant colonies treated/untreated plates) [2, 20]: 1.2; revertant colonies, average [2, 21]: 14.5; t/c (revertant colonies treated/untreated plates) [2, 21]: 1.3; revertant colonies, average [2, 22]: 7.5; t/c (revertant colonies treated/untreated plates) [2, 22]: 0.7; revertant colonies, average [2, 23]: 8.0; t/c (revertant colonies treated/untreated plates) [2, 23]: 0.7; revertant colonies, average [2, 24]: 9.0; t/c (revertant colonies treated/untreated plates) [2, 24]: 0.8; revertant colonies, average [3, 25]: 182.0; t/c (revertant colonies treated/untreated plates) [3, 25]: 1.1; revertant colonies, average [3, 26]: 178.5; t/c (revertant colonies treated/untreated plates) [3, 26]: 1.0; revertant colonies, average [3, 27]: 184.5; t/c (revertant colonies treated/untreated plates) [3, 27]: 1.1; revertant colonies, average [3, 28]: 178.0; t/c (revertant colonies treated/untreated plates) [3, 28]: 1.0; revertant colonies, average [3, 29]: 203.0; t/c (revertant colonies treated/untreated plates) [3, 29]: 1.2; revertant colonies, average [3, 30]: 186.5; t/c (revertant colonies treated/untreated plates) [3, 30]: 1.0; revertant colonies, average [3, 31]: 220.0; t/c (revertant colonies treated/untreated plates) [3, 31]: 1.1; revertant colonies, average [3, 32]: 172.0; t/c (revertant colonies treated/untreated plates) [3, 32]: 0.9; revertant colonies, average [3, 33]: 202.5; t/c (revertant colonies treated/untreated plates) [3, 33]: 1.0; revertant colonies, average [3, 34]: 185.5; t/c (revertant colonies treated/untreated plates) [3, 34]: 0.9; revertant colonies, average [4, 35]: 116.5; t/c (revertant colonies treated/untreated plates) [4, 35]: 1.1; revertant colonies, average [4, 36]: 92.5; t/c (revertant colonies treated/untreated plates) [4, 36]: 0.8; revertant colonies, average [4, 37]: 99.0; t/c (revertant colonies treated/untreated plates) [4, 37]: 0.9; revertant colonies, average [4, 38]: 107.0; t/c (revertant colonies treated/untreated plates) [4, 38]: 1.0; revertant colonies, average [4, 39]: 101.0; t/c (revertant colonies treated/untreated plates) [4, 39]: 0.9; revertant colonies, average [4, 40]: 75.0; t/c (revertant colonies treated/untreated plates) [4, 40]: 1.0; revertant colonies, average [4, 41]: 69.5; t/c (revertant colonies treated/untreated plates) [4, 41]: 0.9; revertant colonies, average [4, 42]: 86.5; t/c (revertant colonies treated/untreated plates) [4, 42]: 1.1; revertant colonies, average [4, 43]: 79.5; t/c (revertant colonies treated/untreated plates) [4, 43]: 1.0; revertant colonies, average [4, 44]: 88.5; t/c (revertant colonies treated/untreated plates) [4, 44]: 1.1
